Results on one substance are retold here after paper PMC10537410 (Pharmaceutics, 2023).

A value given as a limit tells only on which side of the number the result lay.

The data set is described as follows: In vitro dissolution in simulated lung fluid. To be noted: simulated lung fluid with 0.01% w/v DPPC, ca. 2 mg CsA in 100 mL, 100 r/min, 37 °C, HPLC; n = 3. It counts as physicochemical. The protocol: In vitro dissolution was carried out in simulated lung fluid. Simulated lung fluid was prepared with some modifications according to the literature. The composition of simulated lung fluid included NaCl (6.40 g/L), CaCl2·2H2O (0.26 g/L), Na2HPO4 (0.15 g/L), NaHCO3 (2.70 g/L), NH4Cl (0.12 g/L), MgCl2 (0.10 g/L), Na2SO4·10H2O (0.18 g/L), Na3citrate·2H2O (0.16 g/L), Glycine (0.19 g/L), and dipalmitoylphosphatidylcholine (0.01% w/v). Raw CsA and formulation (ca. 2 mg CsA) were dispersed in 100 mL dissolution medium and placed in a magnetic stirrer (MR Hei-Tec, Heidolph, Germany) maintained at 100 r/min and 37 °C. At predetermined intervals, suspensions (0.5 mL) were withdrawn and centrifuged. The supernatants were diluted with 0.5 mL of ethanol and determined by the HPLC method, as described in Section 2.3.

Cyclosporine A [raw CsA]: the “Release amount within 24 h” value is on record as ≤ 24%.
